Here are results for 4 compounds from the supplement of paper PMC10307832.

The first assay deals with NCI-H520. Put plainly: relative viability (nuclei count vs DMSO), 5 days (fraction); higher = more cells survive. As to conditions: first compound 0.4 µM. In a few lines:
(§1)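 Each reported value is a median over duplicate plates. It expresses relative viability: treated-well nuclei count divided by vehicle-well nuclei count. Lung cancer cell lines in 1536-well plates were dosed by pin tool a day after seeding, alone with one drug or with a fixed anchor-drug dose plus five library-drug doses (not always all listed) in √10 steps, and nuclei were counted after 5 days.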
In turn, `Clc1ccc(Nc2nnc(Cc3ccncc3)c3ccccc23)cc1` [Vatalanib] + COc1cccc2cc(-c3nc([C@H]4CC[C@H](C(=O)O)CC4)n4ncnc(N)c34)[nH]c12 [OSI-027] (partner 0.5 µM) registered a relative viability of 0.244.
In the case of `Clc1ccc(Nc2nnc(Cc3ccncc3)c3ccccc23)cc1` [Vatalanib] + N=C(N)NC(=N)NCCc1ccccc1 [Phenformin] (partner 250 µM), the relative viability came out at 0.83.
`Clc1ccc(Nc2nnc(Cc3ccncc3)c3ccccc23)cc1` [Vatalanib] + Nc1nc2[nH]cc(CCc3ccc(C(=O)N[C@@H](CCC(=O)O)C(=O)O)cc3)c2c(=O)[nH]1 [Pemetrexed] (partner 0.2 µM) displayed a relative viability of 0.751.

Staying with this assay, now noted: first compound 1.265 µM.
Compound `COc1cc(N2CCC(C(N)=O)CC2)ccc1Nc1nc(N)c(Cl)c(Nc2ccccc2S(=O)(=O)C(C)C)n1` [HG-5-88-01] + N=C(N)NC(=N)NCCc1ccccc1 [Phenformin] (partner 250 µM) registered a relative viability of 0.431.
Same read-out and setting: with `Clc1ccc(Nc2nnc(Cc3ccncc3)c3ccccc23)cc1` [Vatalanib] + COc1cccc2cc(-c3nc([C@H]4CC[C@H](C(=O)O)CC4)n4ncnc(N)c34)[nH]c12 [OSI-027] (partner 0.5 µM) the figure was 0.252.
Compound `Clc1ccc(Nc2nnc(Cc3ccncc3)c3ccccc23)cc1` [Vatalanib] + N=C(N)NC(=N)NCCc1ccccc1 [Phenformin] (partner 250 µM) had a relative viability of 0.493.
Compound `Clc1ccc(Nc2nnc(Cc3ccncc3)c3ccccc23)cc1` [Vatalanib] + Nc1nc2[nH]cc(CCc3ccc(C(=O)N[C@@H](CCC(=O)O)C(=O)O)cc3)c2c(=O)[nH]1 [Pemetrexed] (partner 0.2 µM) came in with a relative viability of 0.625.

Still in this assay, the particulars now being: first compound 4 µM.
In the case of `COc1cc(N2CCC(C(N)=O)CC2)ccc1Nc1nc(N)c(Cl)c(Nc2ccccc2S(=O)(=O)C(C)C)n1` [HG-5-88-01] + N=C(N)NC(=N)NCCc1ccccc1 [Phenformin] (partner 250 µM), the relative viability is 0.492.
Consider `Clc1ccc(Nc2nnc(Cc3ccncc3)c3ccccc23)cc1` [Vatalanib] + COc1cccc2cc(-c3nc([C@H]4CC[C@H](C(=O)O)CC4)n4ncnc(N)c34)[nH]c12 [OSI-027] (partner 0.5 µM), for which the relative viability was 0.224.
On the same count and under the same terms, with `Clc1ccc(Nc2nnc(Cc3ccncc3)c3ccccc23)cc1` [Vatalanib] + N=C(N)NC(=N)NCCc1ccccc1 [Phenformin] (partner 250 µM) the figure was 0.479; with `Clc1ccc(Nc2nnc(Cc3ccncc3)c3ccccc23)cc1` [Vatalanib] + Nc1nc2[nH]cc(CCc3ccc(C(=O)N[C@@H](CCC(=O)O)C(=O)O)cc3)c2c(=O)[nH]1 [Pemetrexed] (partner 0.2 µM), 0.62.

The next assay relates to NCI-H596. The assay is described as above. As to conditions: first compound 0.04 µM. In outline: as §1
The compound `COc1cc(N2CCC(C(N)=O)CC2)ccc1Nc1nc(N)c(Cl)c(Nc2ccccc2S(=O)(=O)C(C)C)n1` [HG-5-88-01] + N=C(N)NC(=N)NCCc1ccccc1 [Phenformin] (partner 250 µM) came in with a relative viability of 0.657.
Still for that read-out and setting: the figure for `Clc1ccc(Nc2nnc(Cc3ccncc3)c3ccccc23)cc1` [Vatalanib] + COc1cccc2cc(-c3nc([C@H]4CC[C@H](C(=O)O)CC4)n4ncnc(N)c34)[nH]c12 [OSI-027] (partner 0.5 µM) is 0.838; for `Clc1ccc(Nc2nnc(Cc3ccncc3)c3ccccc23)cc1` [Vatalanib] + N=C(N)NC(=N)NCCc1ccccc1 [Phenformin] (partner 250 µM) it is 0.715; for `Clc1ccc(Nc2nnc(Cc3ccncc3)c3ccccc23)cc1` [Vatalanib] + Nc1nc2[nH]cc(CCc3ccc(C(=O)N[C@@H](CCC(=O)O)C(=O)O)cc3)c2c(=O)[nH]1 [Pemetrexed] (partner 0.2 µM) it is 0.482.

Still in this assay, the particulars now being: first compound 0.1265 µM.
In the case of `COc1cc(N2CCC(C(N)=O)CC2)ccc1Nc1nc(N)c(Cl)c(Nc2ccccc2S(=O)(=O)C(C)C)n1` [HG-5-88-01] + N=C(N)NC(=N)NCCc1ccccc1 [Phenformin] (partner 250 µM), the relative viability was determined as 0.807.
The same measure, in the same setting: with `Clc1ccc(Nc2nnc(Cc3ccncc3)c3ccccc23)cc1` [Vatalanib] + COc1cccc2cc(-c3nc([C@H]4CC[C@H](C(=O)O)CC4)n4ncnc(N)c34)[nH]c12 [OSI-027] (partner 0.5 µM) the figure was 0.651.
The compound `Clc1ccc(Nc2nnc(Cc3ccncc3)c3ccccc23)cc1` [Vatalanib] + N=C(N)NC(=N)NCCc1ccccc1 [Phenformin] (partner 250 µM) came in with a relative viability of 0.874.
Compound `Clc1ccc(Nc2nnc(Cc3ccncc3)c3ccccc23)cc1` [Vatalanib] + Nc1nc2[nH]cc(CCc3ccc(C(=O)N[C@@H](CCC(=O)O)C(=O)O)cc3)c2c(=O)[nH]1 [Pemetrexed] (partner 0.2 µM) yielded a relative viability of 0.488.

Staying with this assay, now noted: first compound 0.4 µM.
With `COc1cc(N2CCC(C(N)=O)CC2)ccc1Nc1nc(N)c(Cl)c(Nc2ccccc2S(=O)(=O)C(C)C)n1` [HG-5-88-01] + N=C(N)NC(=N)NCCc1ccccc1 [Phenformin] (partner 250 µM), the relative viability turned out to be 0.612.
`Clc1ccc(Nc2nnc(Cc3ccncc3)c3ccccc23)cc1` [Vatalanib] + COc1cccc2cc(-c3nc([C@H]4CC[C@H](C(=O)O)CC4)n4ncnc(N)c34)[nH]c12 [OSI-027] (partner 0.5 µM) displayed a relative viability of 0.777.
`Clc1ccc(Nc2nnc(Cc3ccncc3)c3ccccc23)cc1` [Vatalanib] + N=C(N)NC(=N)NCCc1ccccc1 [Phenformin] (partner 250 µM): the relative viability came to 0.769.
`Clc1ccc(Nc2nnc(Cc3ccncc3)c3ccccc23)cc1` [Vatalanib] + Nc1nc2[nH]cc(CCc3ccc(C(=O)N[C@@H](CCC(=O)O)C(=O)O)cc3)c2c(=O)[nH]1 [Pemetrexed] (partner 0.2 µM) showed a relative viability of 0.524.

Staying with this assay, now noted: first compound 1.265 µM.
Turning to `COc1cc(N2CCC(C(N)=O)CC2)ccc1Nc1nc(N)c(Cl)c(Nc2ccccc2S(=O)(=O)C(C)C)n1` [HG-5-88-01] + N=C(N)NC(=N)NCCc1ccccc1 [Phenformin] (partner 250 µM), the relative viability amounted to 0.728.
Same read-out and setting: with `Clc1ccc(Nc2nnc(Cc3ccncc3)c3ccccc23)cc1` [Vatalanib] + COc1cccc2cc(-c3nc([C@H]4CC[C@H](C(=O)O)CC4)n4ncnc(N)c34)[nH]c12 [OSI-027] (partner 0.5 µM) the figure was 0.756; with `Clc1ccc(Nc2nnc(Cc3ccncc3)c3ccccc23)cc1` [Vatalanib] + N=C(N)NC(=N)NCCc1ccccc1 [Phenformin] (partner 250 µM), 0.767; with `Clc1ccc(Nc2nnc(Cc3ccncc3)c3ccccc23)cc1` [Vatalanib] + Nc1nc2[nH]cc(CCc3ccc(C(=O)N[C@@H](CCC(=O)O)C(=O)O)cc3)c2c(=O)[nH]1 [Pemetrexed] (partner 0.2 µM), 0.514.

The same assay, now with this note: first compound 4 µM.
For the compound `COc1cc(N2CCC(C(N)=O)CC2)ccc1Nc1nc(N)c(Cl)c(Nc2ccccc2S(=O)(=O)C(C)C)n1` [HG-5-88-01] + N=C(N)NC(=N)NCCc1ccccc1 [Phenformin] (partner 250 µM), the relative viability is 0.379.
Consider `Clc1ccc(Nc2nnc(Cc3ccncc3)c3ccccc23)cc1` [Vatalanib] + COc1cccc2cc(-c3nc([C@H]4CC[C@H](C(=O)O)CC4)n4ncnc(N)c34)[nH]c12 [OSI-027] (partner 0.5 µM), for which the relative viability was determined as 0.5.
